Assay results published in ChEMBL document CHEMBL1781904, “Absolute configuration and selective trypanocidal activity of gaudichaudianic acid enantiomers” (J Nat Prod, 2011).
pIC50: −log10 of the molar value.

Test system: Trypanosoma cruzi
Assay: Trypanocidal activity against Trypanosoma cruzi Y epimastigotes after 72 hrs by MTT assay
Format: functional, organism-based

| SMILES | pIC50 (Trypanosoma cruzi, Y, 72 h) | pIC50 |
| --- | --- | --- |
| CC(C)=CCC[C@]1(C)C=Cc2cc(C(=O)O)cc(CC=C(C)C)c2O1 | 3.65 | – |
| CC(C)=CCCC1(C)C=Cc2cc(C(=O)O)cc(CC=C(C)C)c2O1 (racemic; form 1) [GAUDICHAUDIANIC ACID] | – | 3.95 |
| O=C(Cn1ccnc1[N+](=O)[O-])NCc1ccccc1 [BENZNIDAZOLE] | 4.43 | – |
| CC(C)=CCCC1(C)C=Cc2cc(C(=O)O)cc(CC=C(C)C)c2O1 (stereo in doubt; 1) [GAUDICHAUDIANIC ACID] | – | 4.25 |
| CC(C)=CCC[C@@]1(C)C=Cc2cc(C(=O)O)cc(CC=C(C)C)c2O1 | 3.75 | – |
| CC(C)=CCCC1(C)C=Cc2cc(C(=O)O)cc(CC=C(C)C)c2O1 (racemic; form 2) [GAUDICHAUDIANIC ACID] | – | 3.71 |
